Test results taken from US20190030009A1, “COMPOUNDS AND COMPOSITIONS FOR THE TREATMENT OF CRYPTOSPORIDIOSIS” (Novartis AG, priority 2016, published 2019).

Tests used:
Cryptosporidium parvum = assay: Cytopathic effect (CPE) based assay, C. parvum infected HCT-8 cells; settings: HCT-8 host cell viability (CellTiter-Glo), 48 hours treatment, read-out: Cp CPE EC50
In short: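 HCT-8 cells were batch-infected with excysted C. parvum (Iowa isolate) oocysts at MOI 1:2 (host:parasite) for 3 h at 37 °C, then seeded and incubated 24 h before compound addition. Compounds were given as 3-fold dilution series (final DMSO <0.5%). Host-cell loss (cytopathic effect) was read as viability with CellTiter-Glo.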

C. parvum = assay: High content imaging assay, C. parvum infected HCT-8 cells; assay type: cell-based; settings: Cryptosporidium parvum, percentage of infected HCT-8 cells, 48 hours treatment, read-out: Cp HCl IC50
Experimental: (§1) Human ileocecal colorectal adenocarcinoma cells (HCT-8 [HRT-18] ATCC, CCL-34) were maintained in T-175 flasks (Corning, 431080) in complete growth medium (RPMI-1640 medium (Gibco, 11875) supplemented with 10% heat-inactivated horse serum (Gibco, 26050), 1×MEM non-essential amino acids (Gibco, 11140), 10 mM HEPES (Gibco, 15630), 100 units/mL penicillin, and 100 units/mL streptomycin) at 37° C. and 5% CO2 in a humidified incubator. Cultures were passaged twice weekly using 10 mL of 1×Phosphate-Buffered Saline (PBS) without Ca^2+ and Mg^2+ (Gibco, 20012) for washing and 3-5 mL per T-175 flask of TrypLE Express Enzyme (Gibco, 12604) for dissociation of adherent cells.
Cryptosporidium parvum oocysts purchased from the Sterling Laboratory, University of Arizona (Iowa isolate) were purified from infected calf feces using discontinuous sucrose and cesium chloride centrifugation gradients and stored in PBS solution containing 0.01% Tween 20, 100 units/mL penicillin and 100 units/mL gentamicin.
(§2) Excystation and infection protocols were developed following established methods with some modifications (Gut & Nelson, 1999, Upton et aL, 1995, Bessoff et aL, 2013). Briefly, oocysts were primed in 1 mL of 10 mM hydrochloric acid in 1× Hank's Balanced Salt Solution (HBSS) (Gibco, 14025) for 10 minutes with agitation at 1000 rpm, 37° C. on an Eppendorf thermomixer, then washed twice with 1 mL of room temperature non-acidic 1× HBSS by centrifugation at 13,000 rpm for 3 minutes at 25° C. Primed oocysts were further excysted at a concentration of 1×10^6 oocysts/μL in parasite infection medium consisting of a pre-warmed and pre-gassed 1:1 formulation of Leibovitz's L-15 medium (Gibco, 11415) and UltraCULTURE medium (Lonza, 12-725F) supplemented with 2 mM sodium taurocholate (Sigma, 86339-1), 10% heat-inactivated horse serum, and 200 μM L-ascorbic acid (Sigma, 95210) at 25° C. for 10 minutes. HCT-8 monolayer cells were infected with excysted cryptosporidium at a specified multiplicity of infection (MOI). All dilutions for subsequent assays were performed in parasite infection medium without sodium taurocholate. Pre-excysted oocysts were enumerated microscopically using a C-Chip disposable hemocytometer (NanoEnTek, DHC-N01).
(§3) Compound powders were dissolved in neat DMSO (Fisher, D4121) to 10 mM and stored at 4° C. prior to dilution into source plates. Dilutions were carried out using a Microlab STAR liquid handler (Hamilton) to obtain compound source plates containing the ten-point or eight-point three fold dilutions starting from 10 mM in duplicates. Source plates were stored at 4° C. prior to spotting into assay plates. Before administration, all compound source plates were equilibrated to room temperature. A specified volume of compounds from source plate were spotted to assay plate using an Echo Acoustic liquid handler (LABCYTE, 550) so that the final DMSO concentration was less than 0.5%. Each assay plate a specified number of DMSO-treated negative control wells and a well-studied potent active compound at 100 nM as positive control. As a quality control, all positive and negative-control wells were used to calculate a Z′-value and signal to noise ratio (S:N) for each plate.
Imaging assays were developed following established Cryptosporidium spp labeling and in vitro infection models with some modifications (Bessoff et aL, 2013, Gut & Nelson, 1999). Briefly, 2×10^4 HCT-8 cells per well were seeded into 384-well, flat black clear-bottom OPERA assay plates (Greiner, 789071-G) at 20 μL per well in complete growth medium using a Multidrop Combi liquid handler (ThermoScientific, 5840300) and standard tube dispensing cassette (ThermoScientific, 24072670) and incubated for 24 hours at 37° C. The HCT-8 cells were infected with 10 μL per well of 1×10^4 excysted C. parvum oocysts (host to parasite MOI of 1:0.5) or 10 μL per well of 4×10^4 excysted C. hominis oocysts (MOI 1:2) in parasite infection medium using the Multidrop and incubated at 37° C. […]

[1] = Cytotoxicity against HepG2; assay type: cell-based; settings: human, HepG2 cells (ATCC HB-8065), 5 days exposure
In short: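 Cells seeded at 10^5 per well, held 24 h at 37 °C, then exposed to two-fold serial dilutions of compound for 5 days. Viability read with Cell Proliferation Kit II (XTT); values reported as CC50.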

Cryptosporidium hominis = assay: Cytopathic effect (CPE) based assay, C. hominis infected HCT-8 cells; settings: HCT-8 host cell viability (CellTiter-Glo), 48 hours treatment, read-out: Ch CPE EC50
Experimental: as §1
Cryptosporidium hominis oocysts were purchased from the Tufts University Cummings School of Veterinary Medicine (courtesy of Dr. Saul Tzipori). C. hominis oocysts were purified from infected gnotobiotic piglet feces and stored in PBS solution containing 0.01% Tween-20, 100 units/mL penicillin and 100 units/mL gentamicin. C. parvum and C. hominis oocysts less than three months old from the date of shedding were used in infection experiments.
as §2, §3
Cryptosporidium spp are obligate-intracellular parasites that infect intestinal epithelial cells and the host cell is killed upon parasite egress. […] The loss of epithelial cells is due to both rapid parasite invasion/multiplication/egress and also pro-inflammatory immune response (Adams et al., 1994, Griffiths et al., 1994). We have observed a consistent cytopathic effect (CPE) in HCT-8 cells with C. spp infection the loss of viability of the host cells using CellTiter-Glo reagent.
Confluent HCT-8 cells in T-175 flasks were directly infected with excysted oocysts at an MOI (host to parasite) of 1:2 for C. parvum and 1:4 for C. hominis. […]

Structure (SMILES)	EC50 (Cryptosporidium parvum) [nM]	IC50 (C. parvum) [nM]	CC50 at 5 days [1] [nM]	EC50 (Cryptosporidium hominis) [nM]
CCN(C(=O)c1ccn2ncc(-c3ccc(C(=O)NC)cc3)c2c1)c1ccc(C(F)(F)F)cn1 [Example 96]	50	24	7140	–
CCN(C(=O)c1ccn2ncc(-c3ccc(C(=O)NC)nc3)c2c1)c1ccc(C#N)cn1 [Example 150]	1070	382	9820	–
N#Cc1ccc(N(C(=O)c2ccn3ncc(-c4ccc(C(=O)NC5COC5)cc4)c3c2)C2CC2)nc1 [Example 131]	2730	–	> 50000	4110
CNC(=O)c1ccc(-c2cnn3ccc(C(=O)N(c4ccc(C(F)(F)F)cn4)C(C)C)cc23)cc1 [Example 153]	39	11	20600	70
CNC(=O)c1ccc(-c2cnn3ccc(C(=O)N(c4ccc(C(F)(F)F)cn4)C4CCC4)cc23)cc1 [Example 160]	85	29	2090	–
CNC(=O)c1ccc(-c2cnn3ccc(N(C)C(=O)c4ccc(C#N)cn4)cc23)cc1 [Example 94]	368	123	31200	456
CCNC(=O)c1ccc(-c2cnn3ccc(C(=O)N(c4ccc(C#N)cn4)C4CC4)cc23)cc1 [Example 127]	102	62	40200	71
CC(C)NC(=O)c1ccc(-c2cnn3ccc(C(=O)N(c4ccc(C#N)cn4)C4CC4)cc23)cc1 [Example 121]	8640	–	33200	> 20000
CNC(=O)c1ccc(-c2cnn3ccc(C(=O)N(c4ccc(C#N)cn4)C4CCC4)cc23)cc1 [Example 112]	270	–	5020	351
N#Cc1ccc(N(C(=O)c2ccn3ncc(-c4ccc(C(=O)NC5CC5)cc4)c3c2)C2CC2)nc1 [Example 123]	2990	–	17200	3150
CCN(C(=O)c1ccn2ncc(-c3ccc(C(=O)NC)cc3)c2c1)c1ccc(C#N)cn1 [Example 90]	68	52	14800	–
N#Cc1ccc(N(C(=O)c2ccn3ncc(-c4ccc(C(N)=O)cc4)c3c2)C2CC2)nc1 [Example 120]	172	–	23700	276
CNC(=O)c1ccc(-c2cnn3ccc(C(=O)N(c4ccc(Cl)cn4)C4CC4)cc23)cc1 [Example 124]	103	60	21000	–
CNC(=O)c1ccc(-c2cnn3ccc(C(=O)N(c4ccc(C#N)cn4)C(C)C)cc23)cc1 [Example 91]	129	–	18700	139
CNC(=O)c1ccc(-c2cnn3ccc(C(=O)N(NC)c4ccc(C#N)cc4)cc23)cn1 [Example 92]	310	94	8520	–
CNC(=O)c1ccc(-c2cnn3ccc(C(=O)N(c4ccc(C#N)c(OC)n4)C4CC4)cc23)cc1 [Example 149]	55	32	23300	–
